# In patent US10934311B2, “Heterocyclic compound used as FGFR inhibitor” (Hangzhou Innogate Pharma Co., Ltd., priority 2016, dated 2021):
# Columns and labels:
# FGFR1 = FGFR1 (Homo sapiens, UniProt P11362); experiment: FGFR1 kinase activity inhibition (Caliper mobility shift assay); format: biochemical; details: read-out: FGFR kinase activity inhibition (IC50, nM) FGFR1
# Procedure: (§1) 1. FGFR1, FGFR2, FGFR3, and FGFR4 Kinase Activity Inhibition Experiments The FGFR1, FGFR2, FGFR3, and FGFR4 protein kinase activities were measured using the Caliper mobility shift assay. Compounds were solubilized in DMSO and diluted in kinase buffer. 5 µL of compound at 5 times final concentration (10% DMSO) was added to a 384-well plate. 10 μL of a 2.5-fold enzyme (FGFR1, FGFR2, FGFR3, and FGFR4, respectively) solution was added and incubated at room temperature for 10 minutes, followed by the addition of […] of a 2.5-fold substrate (FAM-labeled peptide and ATP) solution. The reaction was incubated for 30-60 minutes at 28° C., then stopped by adding 25 μL of stop solution (pH 7.5 100 mM HEPES, 0.015% Brij-35, 0.2% Coating Reagent #3, 50 mM EDTA). Conversion data was read on the Caliper EZ Reader II (Caliper Life Sciences). The conversion rate was converted into inhibition rate (% inhibition rate=(max−sample conversion rate)/(max−min)*100). Where max refers to the conversion of the DMSO control and min refers to the conversion of the non-enzymatic live control. With the compound concentration and inhibition rate plotted on the abscissa and the vertical axis, the curve was fitted using XLFit excel add-in version 4.3.1 software and the IC50 was calculated.
# FGFR3 = FGFR3 (Homo sapiens, UniProt P22607); experiment: FGFR3 kinase activity inhibition (Caliper mobility shift assay); format: biochemical; details: read-out: FGFR kinase activity inhibition (IC50, nM) FGFR3
# Procedure: as §1
# FGFR2 = FGFR2 (Homo sapiens, UniProt P21802); experiment: FGFR2 kinase activity inhibition (Caliper mobility shift assay); format: biochemical; details: read-out: FGFR kinase activity inhibition (IC50, nM) FGFR2
# Procedure: as §1
# FGFR4 = FGFR4 (Homo sapiens, UniProt P22455); experiment: FGFR4 kinase activity inhibition (Caliper mobility shift assay); format: biochemical; details: read-out: FGFR kinase activity inhibition (IC50, nM) FGFR4
# Procedure: as §1
# SNU-16 tumor cells = experiment: Inhibition test against SNU-16 tumor cell proliferation (CTG); format: cell-based; details: Homo sapiens, 72 hours drug treatment, CTG readout, read-out: Inhibits of SNU-16 tumor cells proliferation (IC50, nM) SNU-16
# Procedure: 2. Compounds' Inhibition Test Against SNU-16 Tumor Cell Proliferation
# SNU-16 cell suspension was adjusted to 5.56×10e4/mL with RPMI 1640 medium. Add 90 μL of cell suspension to 96-well cell culture plates per well for a final cell concentration of 5000 cells/well. The test compound was dissolved in DMSO as a 10 mM stock solution. The 3× series of serial dilutions were prepared with stock and DMSO and then diluted 100-fold with media. Finally, 10 μL of the corresponding 10× solution was added to each well of each cell, and each drug concentration was 2 replicates. The final concentration of each compound was 1000 nM, 333.3 nM, 111.1 nM, 37.04 nM, 12.35 nM, 4.115 nM, 1.372 nM, 0.457 nM, 0.152 nM, the final concentration of DMSO per well is 0.1%. Place in a 37° C., 5% CO2 incubator for 72 hours. After 72 hours of drug treatment, add 50 μL (1/2 culture volume) of CTG solution that has been previously thawed and equilibrated to room temperature per well according to CTG instructions, mix for 2 minutes using a microplate shaker, and allow to stand at room temperature for 10 minutes. The Envision 2104 reader was used to determine the […] signal value. Cell viability formula: Vsample/Vvehicle control×100% for calculation. Wherein Vsample is the reading of the drug treatment group and, Vvehicle control is the average of the solvent control group. Using the GraphPad Prism 5.0 software, a sigmoidal dose-survival curve was plotted using a non-linear regression model and IC50 values were calculated.
# Chain of FGFR1 (P11362 22-822): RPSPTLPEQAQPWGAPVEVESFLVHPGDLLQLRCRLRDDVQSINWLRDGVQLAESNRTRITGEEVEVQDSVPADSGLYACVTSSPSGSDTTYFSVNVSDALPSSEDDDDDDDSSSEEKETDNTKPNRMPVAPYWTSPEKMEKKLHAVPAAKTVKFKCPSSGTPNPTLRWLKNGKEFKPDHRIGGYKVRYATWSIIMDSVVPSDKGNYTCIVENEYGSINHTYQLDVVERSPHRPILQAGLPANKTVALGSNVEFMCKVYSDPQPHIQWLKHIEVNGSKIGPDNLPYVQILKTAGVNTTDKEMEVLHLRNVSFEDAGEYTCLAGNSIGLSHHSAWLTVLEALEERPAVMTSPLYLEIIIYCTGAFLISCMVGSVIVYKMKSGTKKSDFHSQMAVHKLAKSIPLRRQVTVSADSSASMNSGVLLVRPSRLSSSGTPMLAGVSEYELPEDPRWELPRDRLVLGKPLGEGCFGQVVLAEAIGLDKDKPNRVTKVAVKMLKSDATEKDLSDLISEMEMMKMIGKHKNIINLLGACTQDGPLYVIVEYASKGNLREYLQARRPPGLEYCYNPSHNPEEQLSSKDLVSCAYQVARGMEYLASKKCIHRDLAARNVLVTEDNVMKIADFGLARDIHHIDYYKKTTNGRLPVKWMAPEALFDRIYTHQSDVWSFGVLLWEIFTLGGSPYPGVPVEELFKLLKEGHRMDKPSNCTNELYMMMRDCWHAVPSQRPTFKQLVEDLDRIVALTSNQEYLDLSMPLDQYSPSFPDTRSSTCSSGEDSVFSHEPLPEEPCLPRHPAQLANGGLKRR
# Chain of FGFR4 (P22455 22-802): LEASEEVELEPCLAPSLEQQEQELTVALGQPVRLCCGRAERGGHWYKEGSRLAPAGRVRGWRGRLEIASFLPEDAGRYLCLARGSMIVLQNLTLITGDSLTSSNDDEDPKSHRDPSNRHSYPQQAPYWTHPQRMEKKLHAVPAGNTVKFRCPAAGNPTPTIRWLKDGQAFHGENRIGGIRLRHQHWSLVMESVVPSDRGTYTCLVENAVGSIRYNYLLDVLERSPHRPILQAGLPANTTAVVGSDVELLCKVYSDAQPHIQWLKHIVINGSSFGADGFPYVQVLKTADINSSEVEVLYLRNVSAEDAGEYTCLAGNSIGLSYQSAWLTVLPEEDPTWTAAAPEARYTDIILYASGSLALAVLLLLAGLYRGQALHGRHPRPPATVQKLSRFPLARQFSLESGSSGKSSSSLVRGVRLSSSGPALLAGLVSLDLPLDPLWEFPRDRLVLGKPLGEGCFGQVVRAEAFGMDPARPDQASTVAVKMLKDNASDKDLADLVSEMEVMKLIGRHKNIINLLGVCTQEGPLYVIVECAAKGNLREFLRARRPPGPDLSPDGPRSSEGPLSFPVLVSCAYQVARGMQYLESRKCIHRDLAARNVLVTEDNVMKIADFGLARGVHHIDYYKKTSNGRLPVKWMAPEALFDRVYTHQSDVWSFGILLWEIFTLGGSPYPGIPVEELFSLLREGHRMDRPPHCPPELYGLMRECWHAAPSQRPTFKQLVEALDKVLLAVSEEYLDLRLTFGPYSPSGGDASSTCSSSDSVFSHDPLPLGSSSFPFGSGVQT
# Chain of FGFR3 (P22607 23-806): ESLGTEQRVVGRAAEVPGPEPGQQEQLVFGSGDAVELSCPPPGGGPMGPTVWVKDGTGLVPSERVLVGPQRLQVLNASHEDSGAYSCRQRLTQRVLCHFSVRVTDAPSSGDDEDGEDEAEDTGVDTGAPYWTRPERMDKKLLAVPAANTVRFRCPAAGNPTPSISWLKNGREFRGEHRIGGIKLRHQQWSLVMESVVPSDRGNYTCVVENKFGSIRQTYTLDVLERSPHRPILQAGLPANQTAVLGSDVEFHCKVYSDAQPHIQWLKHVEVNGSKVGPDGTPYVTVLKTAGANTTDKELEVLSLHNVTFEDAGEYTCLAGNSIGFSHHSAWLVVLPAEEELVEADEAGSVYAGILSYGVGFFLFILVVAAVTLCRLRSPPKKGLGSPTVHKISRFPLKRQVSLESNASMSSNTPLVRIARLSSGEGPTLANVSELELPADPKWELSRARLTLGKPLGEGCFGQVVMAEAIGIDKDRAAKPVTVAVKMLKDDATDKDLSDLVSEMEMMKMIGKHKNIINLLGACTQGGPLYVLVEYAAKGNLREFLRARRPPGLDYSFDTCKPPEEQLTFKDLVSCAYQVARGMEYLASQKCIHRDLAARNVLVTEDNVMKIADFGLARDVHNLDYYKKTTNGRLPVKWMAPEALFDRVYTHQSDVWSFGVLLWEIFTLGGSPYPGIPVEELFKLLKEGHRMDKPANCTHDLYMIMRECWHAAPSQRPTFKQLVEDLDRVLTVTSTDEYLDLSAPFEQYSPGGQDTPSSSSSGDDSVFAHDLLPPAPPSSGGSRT
# Chain of FGFR2 (P21802 22-821): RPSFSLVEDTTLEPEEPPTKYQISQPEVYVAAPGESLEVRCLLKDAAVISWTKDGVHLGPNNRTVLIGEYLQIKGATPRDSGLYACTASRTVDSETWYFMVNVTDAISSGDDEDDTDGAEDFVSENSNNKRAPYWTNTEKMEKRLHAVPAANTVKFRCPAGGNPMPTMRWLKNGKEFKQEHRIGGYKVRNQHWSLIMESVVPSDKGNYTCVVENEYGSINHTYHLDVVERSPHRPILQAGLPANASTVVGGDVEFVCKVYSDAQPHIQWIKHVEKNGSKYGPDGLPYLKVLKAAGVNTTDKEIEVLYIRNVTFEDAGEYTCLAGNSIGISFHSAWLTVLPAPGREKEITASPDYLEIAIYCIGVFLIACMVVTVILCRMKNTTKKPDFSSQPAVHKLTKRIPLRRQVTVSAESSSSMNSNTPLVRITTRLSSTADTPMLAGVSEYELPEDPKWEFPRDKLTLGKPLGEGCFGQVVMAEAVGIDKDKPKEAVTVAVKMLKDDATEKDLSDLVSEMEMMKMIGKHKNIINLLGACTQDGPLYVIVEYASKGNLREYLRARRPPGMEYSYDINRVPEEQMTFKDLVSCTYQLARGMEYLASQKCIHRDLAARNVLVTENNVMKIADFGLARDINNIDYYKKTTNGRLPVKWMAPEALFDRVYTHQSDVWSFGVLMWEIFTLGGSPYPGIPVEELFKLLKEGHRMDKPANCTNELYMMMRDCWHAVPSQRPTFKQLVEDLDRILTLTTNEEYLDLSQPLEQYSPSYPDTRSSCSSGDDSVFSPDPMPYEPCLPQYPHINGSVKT
structure (smiles),measurement,setting,value
COc1cc(OC)c(Cl)c(NC(=O)N(C)c2cc(Nc3ccc4c(c3)OCC3CN(C)CCN43)ncn2)c1Cl (stereo not shown) [Compound 2],IC50,FGFR1,< 10 nM
same,IC50,FGFR3,< 10 nM
COc1cc(OC)c(Cl)c(NC(=O)N(C)c2cc(Nc3ccc4c(c3)OC[C@H]3CN(C5CC5)CCN43)ncn2)c1Cl [Compound 6R],IC50,FGFR2,< 50 nM
same,IC50,FGFR1,< 20 nM
COc1cc(OC)c(Cl)c(NC(=O)N(C)c2cc(Nc3ccc4c(c3)OC[C@H]3CN(C)CC(=O)N43)ncn2)c1Cl [Compound 9R],IC50,FGFR2,< 10 nM
same,IC50,FGFR1,< 10 nM
CCN1CCN2c3ccc(Nc4cc(N(C)C(=O)Nc5c(Cl)c(OC)cc(OC)c5Cl)ncn4)cc3OC[C@H]2C1 [Compound 4R],IC50,FGFR2,< 10 nM
same,IC50,FGFR1,< 10 nM
COc1cc(OC)c(Cl)c(NC(=O)N(C)c2cc(Nc3ccc4c(c3)OC[C@H]3CN(C)CCN43)ncn2)c1Cl [Compound 2R],IC50,FGFR2,< 10 nM
same,IC50,FGFR4,< 200 nM
same,IC50,FGFR1,< 10 nM
same,IC50,SNU-16 tumor cells,< 10 nM
same,IC50,FGFR3,< 10 nM
C=CC(=O)Nc1cc2c(cc1Nc1cc(N(C)C(=O)Nc3c(Cl)c(OC)cc(OC)c3Cl)ncn1)OC[C@@H]1CN(C)CCN21 [Compound 5S],IC50,FGFR2,> 1000 nM
same,IC50,FGFR4,< 20 nM
same,IC50,FGFR1,> 1000 nM
same,IC50,FGFR3,> 1000 nM
COc1cc(OC)c(Cl)c(NC(=O)N(C)c2cc(Nc3ccc4c(c3)OCCN(C)CCO4)ncn2)c1Cl [Compound 1],IC50,FGFR1,< 20 nM
same,IC50,FGFR3,< 20 nM
CCS(=O)(=O)N1CCN2c3ccc(Nc4cc(N(C)C(=O)Nc5c(Cl)c(OC)cc(OC)c5Cl)ncn4)cc3OC[C@H]2C1 [Compound 10R],IC50,FGFR2,< 50 nM
same,IC50,FGFR1,< 50 nM
COc1cc(OC)c(Cl)c(NC(=O)N(C)c2cc(Nc3ccc4c(c3)OC[C@H]3COCCN43)ncn2)c1Cl [Compound 8R],IC50,FGFR2,< 20 nM
same,IC50,FGFR1,< 20 nM
COc1cc(OC)c(Cl)c(NC(=O)N(C)c2cc(Nc3ccc4c(c3)OC[C@@H]3CN(C)CCN43)ncn2)c1Cl [Compound 2S],IC50,FGFR2,< 10 nM
same,IC50,FGFR4,< 200 nM
same,IC50,FGFR1,< 10 nM
same,IC50,SNU-16 tumor cells,< 10 nM
same,IC50,FGFR3,< 10 nM
CCN1CCN2c3ccc(Nc4cc(N(C)C(=O)Nc5c(Cl)c(OC)cc(OC)c5Cl)ncn4)cc3OC[C@@H]2C1 [Compound 4S],IC50,FGFR2,< 10 nM
same,IC50,FGFR4,< 200 nM
same,IC50,FGFR1,< 10 nM
same,IC50,SNU-16 tumor cells,< 10 nM
same,IC50,FGFR3,< 10 nM
COc1cc(OC)c(Cl)c(NC(=O)N(C)c2cc(Nc3ccc(N4CC5CN(C)CC(C4)C5(F)F)cc3)ncn2)c1Cl [Compound 3],IC50,FGFR1,< 10 nM
same,IC50,SNU-16 tumor cells,< 10 nM
same,IC50,FGFR3,< 10 nM
C=CC(=O)Nc1ccc(CN(C(=O)Nc2c(Cl)c(OC)cc(OC)c2Cl)c2cc(Nc3ccc4c(c3)OC[C@@H]3CN(C)CCN43)ncn2)cc1 [Compound 11S],IC50,FGFR4,< 200 nM
same,IC50,FGFR1,< 50 nM
COc1cc(OC)c(Cl)c(NC(=O)N(C)c2cc(Nc3ccc4c(c3)OC[C@H]3CN(C(C)=O)CCN43)ncn2)c1Cl [Compound 7R],IC50,FGFR2,< 10 nM
same,IC50,FGFR1,< 10 nM
